Patent publication US12263139B2, “Use of cannabidiol in the treatment of tuberous sclerosis complex” (Jazz Pharmaceuticals Research UK Limited, priority 2017, dated 2025)

Columns and labels:
Miapaca = assay: Drug combination assay (MTT, CalcuSyn) of Rad001 and CBD in Miapaca; type: cell-based, Homo sapiens
Experimental: For the study of the synergism between Rad001 and CBD on pancreatic cell lines Miapaca was tested, the cells were seeded in 96-multiwell plates at the density of 3.8 10^3 cells/well. After 24 hr incubation at 37° C., the cells were treated with different concentrations of Rad001 and CBD. Different molar ratios between two drugs in different sequences of administration were tested, (Rad001 for 48 h and CBD for 72 h or Rad001 for 72 h and CBD for 48 h and in co-administration for 72 h.
The proliferative response was estimated by colorimetric 3-(4,5 di-methylthiazol-2-yl)-2,5-diphenyltetrazolium bromide (MIT) test. MTT conversion to formazan by metabolically viable cells was monitored by spectrophotometer at an optical density of 570 nm. Each data point represents the average of three separate experiments with each experiment containing four wells. Drug combination studies were based on concentration-effect curves generated as a plot of the fraction of unaffected (surviving) cells versus drug concentration after treatment.
To explore the relative contribution of each agent to the synergism equi-active doses of […] were tested (IC50). Assessment of synergy was performed quantitating drug interaction by Calcusyn computer program (Biosoft, Ferguson, MO). Combination index (CI) values of <1, 1, and >1 indicate synergy, additivity and antagonism, respectively.
Dose reduction index (DRI) representing the measure of how much the dose of each drug in a combination may be reduced at a given effect level compared with the doses of each drug alone.
The effects of the pharmacological combination between CBD and RAD001 on the proliferation MIAPACA cell lines, using MTT assay were studied. The data obtained were processed with dedicated program, CalcuSyn (Chou and Talalay, Biosoft, Oregon, USA), which measures synergism.
The specific contribution of CBD and Rad001 on the cytotoxic effect of the combination of drugs was analyzed by calculating the potentiation factor (PF) defined as the ratio of the IC50 of either CBD or Rad001 alone to the IC50 of CBD and Rad001 in combination. A higher PF indicates a greater cytotoxicity.

[1] = stomatitis, infections, rash, fatigue, diarrhoea, oedema, abdominal pain, nausea, fever, asthenia, cough, headache, decreased appetite; cited from earlier work

CO[C@H]1C[C@@H]2CC[C@@H](C)[C@@](O)(O2)C(=O)C(=O)N2CCCC[C@H]2C(=O)O[C@H]([C@H](C)C[C@@H]2CC[C@@H](OCCO)[C@H](OC)C2)CC(=O)[C@H](C)/C=C(\C)[C@@H](O)[C@@H](OC)C(=O)[C@H](C)C[C@H](C)/C=C/C=C/C=C/1C [Rad001, Everolimus, reference compound]
IC50 (Miapaca; Homo sapiens, MIA PaCa-2, Miapaca, 50% effect level, read-out: Dose of drug alone): 2600 nM
DRI50 (Miapaca; Miapaca, Rad/CBD combination, dose reduction index): Rad 2.1
potentiation factor (PF) (Miapaca; ratio of IC50 alone to IC50 of CBD and Rad001 in combination): 4
incidence of most common adverse reactions [1]: ≥ 30%
